# According to paper PMC11912270, “Synthesis and SAR Studies of Acyl-Thiourea Platinum(II) Complexes Yield Analogs with Dual-Stage Antiplasmodium Activity” (ACS Medicinal Chemistry Letters, 2025):
# Where “and” joins values, the source holds several entries; their conditions need not be identical. Equal entries are not always repeated.
# Assays:
# [1] = Kinetic solubility by HPLC (pH 6.5); conditions: pH 6.5
# Experimental: 1.7. Kinetic solubility by HPLC (pH 6.5)
# Solubility was measured at pH 6.5 using an adapted miniaturized shake-flask method, in 96-well plate format.4,5 Briefly, 4 µL of a 10 mM stock in DMSO was added to a 96-well plate and evaporated using a GeneVac system. Phosphate buffer pH 6.5 was then added to the wells […]
# At the end of this incubation, the […]
# in the analysis plate. Analysis was then performed by HPLC-DAD and the solubility of each sample was determined from the corresponding calibration curve. […]
# Cyclic voltammetry = assay type: physicochemical; conditions: 0.1 V/s; for Epa1: anodic peak potential; for Epc1: cathodic peak potential
# Source text: It is known that Fe^2+/Fe^3+ redox chemistry has an important role in the bioactivity of ferrocene derivatives.[33] The production of reactive oxygen species (ROS) is one of the modes of action of ferroquine and other ferrocene derivatives[34] and is linked to the correlation between their bioactivity and electrochemical behavior. We determined whether a similar correlation could be made for the mixed-ligand platinum(II) complexes reported herein given that metal centers have the potential to be oxidized and reduced. The electrochemistry of the complexes was studied using cyclic voltammetry (CV), which uses a triangular potential waveform. The CV experiments were performed in either dry MeOH or DMF containing tetrabutylammonium chloride (TBACl) as the supporting electrolyte. The working electrode was glassy carbon with a platinum wire as the counter electrode and Ag/AgCl as the reference. The anodic (Epa) and cathodic (Epc) peak potentials at 0.1 V/s and half-wave potentials (E1/2) were measured (Table 3). All of the tested complexes undergo reversible one-electron Pt^2+/Pt^+ reductions (Figures S38–S46). Complexes C2, C4, and C8 undergo a second nonreversible reduction (Epc2), which is most likely ligand-based and linked to reductions of the substituent on the bpy. Looking at SAR2, the more electron-withdrawing the substituent, the […] the E1/2 (V vs Fe/Fe^+) value was. This trend was expected, as a more electron-withdrawing substituent reduces the electron density around the metal center, making it easier for the metal to be reduced from Pt^2+ to Pt^+. […] This is also the case for other bpy-containing platinum(II) complexes that only undergo reductions.[35],[36] […]
# For the cyclic voltammetry experiments a solution of the test compound (1 x 10-3) in DMSO (3 mL) is added to the electrolyte solution (0.1 M tetrabutylammonium chloride (TBACl) in DMSO). The electrochemical measurements were obtained using a Basi Epsilon Eclipse Electrochemical Analyzer Potentiostat and the CV graphs were generated using Excel. The working electrode was glassy carbon (GC) with platinum wire as the counter electrode (CE) and Ag/AgCl as the reference. […]
# [2] = tested on: late-stage gametocytes (NF54-PfS16-GFP-Luc); test: Luciferase reporter assay, late-stage gametocytes; assay type: cell-based, Plasmodium falciparum; conditions: for LG (% inhibition) 1 µM / LG (% inhibition) 5 µM: single biological repeat; for IC50: late (IV/V) gametocytes, luciferase, 48 h, read-out: LG IC50
# Experimental: (§1) All the complexes were tested for their early- and late-stage gametocyte activity in a dual-point assay (1 μM and 5 μM). […]
# (§2) 1.5.In vitro activity against gametocyte stages
# (§3) PfNF54 gametocytes were prepared and isolated according to the method reported by Reader […]
# (§4) The in vitro gametocyte activity of the synthesized complexes was determined using a luciferase reporter line-based assay.
# (§5) NF54-PfS16-GFP-Luc parasites were used for the stage-specific assessment of gametocytocidal activity. Early-stage gametocyte (stage I-III) experiments were performed on day 5 (representing >90% of early-stage and late-stage gametocyte (stages IV/V) experiments were performed on day 10. In each experiment, assays were set up with the use of 2-3% […]
# (§6) Luciferase activity was determined in 30 µL parasite lysates by adding luciferin substrate (30 µL) (Promega Luciferase Assay System) at room temperature. […]
# ABS parasites = test: Dual point activity against ABS parasites; assay type: cell-based, Plasmodium falciparum; conditions: single biological repeat
# Source text: Table S2: Dual point activity of platinum(II) complexes against ABS parasites, early- and late-
# stage gametocytes. Values are averaged from technical triplicates performed for a single
# PfNF54 ABS parasites = test: SYBR Green I-based proliferative assay, PfNF54 ABS parasites; assay type: cell-based, Plasmodium falciparum; conditions: for IC50: ABS, SYBR Green I, 96 h, mean ± S.E., N = 3 (no S.E.: N = 1)
# Experimental: (§7) The parasites were incubated under drug […]
# (§8) incubation, parasite survival was determined by adding equal volumes of parasite suspension (100 µL) and SYBR Green I lysis buffer (0.2% µL/mL of 10 000x SYBR Green I, 20 mM Tris-HCl, pH 7.5, 5 mM EDTA, 0.008% saponin (w/v) and 0.08% Triton x-100). This was incubated for 1 hour at room temperature in the dark. […]
# [3] = tested on: Chinese hamster ovary (CHO) cell line; test: MTT cytotoxicity assay; assay type: cell-based; conditions: cytotoxicity, MTT, 48 h; N, n = 1, 3; read-out: CHO IC50
# Experimental: 1.6.In vitro cytotoxicity assay
# A 3-(4,5-dimethylthiazol-2-yl)-2,5-diphenyltetrazoliumbromide (MTT) assay was used to screen the metal complexes against the mammalian Chinese hamster ovarian (CHO) cell line.
# A stock solution of each compound (2 mg/mL) in DMSO was prepared and kept at -20 °C until needed. Emetine was used as a reference drug. A starting concentration of 100 µg/mL was used, and serially diluted ten-fold using a complete medium to give the lowest concentration of 0.001 µg/mL (6 dilutions). The plates containing the CHO cells under drug pressure were […]
# Plates containing the drug and cell suspension were developed by adding 25 μL of sterile MTT (Thermo Fisher Scientific) (25 µL) to each well, followed by 4 h […]
# of incubation at room temperature in the dark. The plates were then centrifuged, and the supernatant was removed via aspiration. Sample absorbance was read at a wavelength of 540 […]
# analysis via GraphPad Prism v.4.0 software. The IC50 values were determined for each compound were determined from the dose-response curves. […]
# [4] = tested on: early-stage gametocytes (NF54-PfS16-GFP-Luc); test: Luciferase reporter assay, early-stage gametocytes; assay type: cell-based, Plasmodium falciparum; conditions: for EG (% inhibition) 1 µM / EG (% inhibition) 5 µM: single biological repeat; for IC50: early (II/III) gametocytes, luciferase, 48 h, read-out: EG IC50
# Experimental: as §1, §2, §3, §4, §5, §6
# PfK1 ABS parasites = assay type: cell-based, Plasmodium falciparum; conditions: for IC50: ABS, SYBR Green I, 96 h, mean ± S.E.; for RI (resistance index): RI = PfK1 IC50/PfNF54 IC50
# Experimental: as §7, §8
SMILES,Epa1 (Cyclic voltammetry),Epc1 (Cyclic voltammetry),LG (% inhibition) 1 µM [2],LG (% inhibition) 5 µM [2],IC50 [2],ABS (% inhibition) 1 µM (ABS parasites),ABS (% inhibition) 5 µM (ABS parasites),IC50 (PfNF54 ABS parasites),IC50 [3],EG (% inhibition) 1 µM [4],EG (% inhibition) 5 µM [4],IC50 [4],other results
CC(C)(C)c1cc[n+]2c(c1)-c1cc(C(C)(C)C)cc[n+]1[Pt-2]21[O+]=C(c2ccccc2)N=C(N(CCO)CCO)[S]1.[Cl-] [C1],–1.233 V,–1.127 V,,,,,,,,,,,"Aqueous solubility pH 6.5 ([1]; kinetic, HPLC): 95 μM"
OCCN(CCO)C1=NC(c2ccccc2)=[O+][Pt-2]2([S]1)[n+]1ccc(O)cc1-c1cc(O)cc[n+]12.[Cl-] [C5],,,0.0 % inhibition,0.5 % inhibition,> 20 µM,0.0 % inhibition,11.0 % inhibition,> 5 µM,> 50 µM,0.0 % inhibition,0.0 % inhibition,> 20 µM,
OCCN(CCO)C1=NC(c2ccccc2)=[O+][Pt-2]2([S]1)[n+]1ccc(Cl)cc1-c1cc(Cl)cc[n+]12.[Cl-] [C7],,,0.0 % inhibition,0.4 % inhibition,> 20 µM,2.7 % inhibition,57.3 % inhibition,> 5 µM,> 50 µM,2.2 % inhibition,4.1 % inhibition,> 20 µM,
CNC(=O)c1cc[n+]2c(c1)-c1cc(C(=O)NC)cc[n+]1[Pt-2]21[O+]=C(c2ccccc2)N=C(N(CCO)CCO)[S]1.[Cl-] [C9],,,0.0 % inhibition,2.4 % inhibition,> 20 µM,0.0 % inhibition,24.5 % inhibition,> 5 µM,> 50 µM,0.0 % inhibition,4.5 % inhibition,> 20 µM,
Cc1ccc(C2=[O+][Pt-2]3([S]C(N(CCO)CCO)=N2)[n+]2ccc(C(C)(C)C)cc2-c2cc(C(C)(C)C)cc[n+]23)cc1.[Cl-] [C11],–1.239 V,–1.128 V,,,,,,,,,,,
COc1ccc(C2=[O+][Pt-2]3([S]C(N(CCO)CCO)=N2)[n+]2ccc(C(C)(C)C)cc2-c2cc(C(C)(C)C)cc[n+]23)cc1.[Cl-] [C12],–1.247 V,–1.133 V,,,,,,,,,,,
CC(C)(C)c1ccnc(-c2cc(C(C)(C)C)ccn2)c1.OCCN(CCO)C(=S)N=C([O][Pt+])c1ccc(Cl)cc1.[Cl-] [C13],–1.233 V,–1.119 V,,,,,,,,,,,
Cc1ccc(-c2ccc(C)cn2)nc1.OCCN(CCO)C(=S)N=C([O][Pt+])c1ccccc1.[Cl-] [C14],,,39.4 % inhibition,56.6 % inhibition,,,,0.241 ± 0.04 µM,> 50 µM,0.0 % inhibition,0.0 % inhibition,,"IC50 (PfK1 ABS parasites): 0.886 ± 0.059 µM; RI (resistance index) (PfK1 ABS parasites): 3.7; fold improvement in PfNF54 activity compared to C2 (PfNF54 ABS parasites; vs 4,4'-dimethyl complex C2): 5 fold and 6 fold"
Cc1cccc(-c2cccc(C)n2)n1.OCCN(CCO)C(=S)N=C([O][Pt+])c1ccccc1.[Cl-] [C15],,,54.8 % inhibition,84.0 % inhibition,1.41 µM,0.0 % inhibition,89.6 % inhibition,2.91 µM,5 µM,2.8 % inhibition,43.9 % inhibition,9.51 µM,"IC50 (PfK1 ABS parasites): 2.76 µM; RI (resistance index) (PfK1 ABS parasites): 0.9; fold decrease in PfNF54 activity compared to C2 (PfNF54 ABS parasites; vs 4,4'-dimethyl complex C2): 2 fold"
"COC(=O)[C@H]1[C@H]2C[C@@H]3c4[nH]c5cc(OC)ccc5c4CCN3C[C@H]2C[C@@H](OC(=O)c2cc(OC)c(OC)c(OC)c2)[C@@H]1OC [Reserpine, reference compound]",,,,,,,,,,,,,solubility at 24 h ([1]; phosphate buffer): < 5 µM
